From the supplement of paper PMC10307832

Columns and labels:
Test in all cases: relative viability (nuclei count vs DMSO), 5 days (fraction); higher = more cells survive
[1] = compound: CNC(=O)c1ccccc1Sc1ccc2c(/C=C/c3ccccn3)n[nH]c2c1 [Axitinib] + CS(=O)(=O)N1CCN(Cc2cc3nc(-c4cccc5[nH]ncc45)nc(N4CCOCC4)c3s2)CC1 [Pictilisib] (partner 1 µM)
Method in brief: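 Cells from lung cancer lines were seeded into 1536-well plates and, one day later, dosed by pin tool. Treatments were either a single drug or a fixed dose of an anchor drug with five library-drug doses (not always all listed) in √10 steps. After 5 days, nuclei were stained in a one-step fixation (final 0.05% Triton X-100, 1% formaldehyde, 1 ug/ml Hoechst) and counted on 4× images, and relative viability is the treated-to-vehicle nuclei ratio, as the median of duplicate plates.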

[2] = compound: CC1=CC=C(C=C1)C(=O)CN2C3=C(CCCC3)SC2=N [Pifithrin_alpha]
Method in brief: (§1)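 Vehicle-anchored 1536-well plates of lung cancer cell lines, held overnight at 37 °C, were pinned with five library-drug doses (not always all listed) spaced by √10. No medium change followed over the next 5 days, after which the cells were fixed, permeabilised and Hoechst-stained together and imaged at 4×. Nuclei were counted with MetaXpress, and viability is treated-well nuclei over vehicle-well nuclei, taken as a median across plates. Plates passed with control CV below 25% and at least one doubling.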

[3] = compound: CNC(=O)c1ccccc1Sc1ccc2c(/C=C/c3ccccn3)n[nH]c2c1 [Axitinib]
Method in brief: as §1

[4] = compound: Nc1nc(Nc2ccc3c(c2)CC[C@@H](N2CCCC2)CC3)nn1-c1cc2c(nn1)-c1ccccc1CCC2 [Bemcentinib]
Method in brief: as §1

Work on NCI-H650 yielded a relative viability ([1]; first compound 0.005 µM) of 0.9, a relative viability ([1]; first compound 0.01581 µM) of 1.03 and a relative viability ([1]; first compound 0.05 µM) of 0.764. It also gave a relative viability ([1]; first compound 0.1581 µM) of 0.945, a relative viability ([1]; first compound 0.5 µM) of 0.846 and a relative viability ([2]; 3.162 µM) of 0.912. It also gave a relative viability ([2]; 10 µM) of 1.07, a relative viability ([2]; 31.62 µM) of 0.766 and a relative viability ([2]; 100 µM) of 0.863. The relative viability ([3]; 0.005 µM) was 1.01, the relative viability ([3]; 0.01581 µM) was 0.983 and the relative viability ([3]; 0.05 µM) was 0.892. It also gave a relative viability ([3]; 0.1581 µM) of 1.1, a relative viability ([3]; 0.5 µM) of 1.01 and a relative viability ([4]; 0.04 µM) of 0.866. The relative viability ([4]; 0.1265 µM) was 1.01, the relative viability ([4]; 0.4 µM) was 1.15 and the relative viability ([4]; 1.265 µM) was 0.838. It also gave a relative viability ([4]; 4 µM) of 0.871.
